Test results as given in patent US8455443B2, “Methods of use of skin wound healing compositions” (University of Southern California, priority 2009, dated 2013).

Key:
[1] = system: 1 cm×1 cm full-thickness excision wound on the back of nude mice; test: full-thickness excision skin wound healing in nude mice, topical treatment; assay type: in vivo; conditions: for wound sizes: n=10 per group
Method: 100 μg F-3 fragments in 100 μl of 10% Carboxymethylcellulose cream and the cream alone was topically applied to the 1 cm×1 cm wound on the back of nude mice daily for 5 days, and wounds were analyzed every two days.
The pharmaceutical 100 μl of 10% carboxymethylcellulose cream (Sterile) is mixed in and the 1 cm×1 cm wound on the back of a nude mouse is topically covered. Following this treatment, the wound is covered with a few antibiotics and bandi and the bandi are fixed by rolling the mouse with coban. The F-3 compound mixture is then added every day for up to five days and the wound is analyzed every two days.
To prepare mice for topical treatment of F-3, 1.0-cm×1.0-cm full-thickness excision wounds were made by lifting the skin with forceps and removing full thickness skin with a pair of scissors on the mid-back of 8 to 10 week old mice. The wounds were topically covered by 100 μl 10% carboxymethylcellulose either without (as a control) or with 300 μg recombinant F-3 compound. The wound area was then covered with Band-Aid and Coban, a self-adherent wrap, to prevent desiccation. Only one dose of F-3 compounds was administered to the wound. To measure the wound area, standardized digital photographs were taken of the wounds at 4, 6, 8, 11, 13 and 15 days post-wounding and the open wound areas were determined with an image analyzer (AlphaEase FC version 4.1.0, Alpha Innotech Corporation). Percentage of wound area was defined by comparing areas of healing wounds to those of the original wounds. The Student T test was used for the statistical analysis. All animal studies were conducted using protocols approved by the University of Southern California Institutional Animal Use Committee.
A 1.0-cm^2 (lcm×lcm) square full-thickness excision wound was made on the mid-back of 8 to 10 week old athymic nude mice and the pharmaceutical composition of F-3 was applied topically daily for 5 days (n=10 mice per group). (A) Representative day 4, 6, 8, 11, 13 and 15 wounds are shown. […] (B) Mean±SD wound size measurements at day 4, 6, 8, 11, 13 and 15 post-wounding (n=10 mice for each group). […]

HKC migration = test: in vitro pro-motility (cell migration) activity of hsp90α and its fragments, FIG. 1; assay type: cell-based, human; conditions: for activity on cell migration: relative to full length hsp90α
Method: FIG. 1 contains a list of amino acid sequences that were tested for in vitro efficacy as compared to a control medium. The amino acid sequences are identified in FIG. 1 as follows:
Therefore, hsp90α promotes HKC migration mainly through its middle and the carboxyl domains, consistent with their surface location in hsp90α.
However, as can also be seen in FIG. 1, not all of the full hsp90α protein or the entire middle domain and charged portion of hsp90α protein is necessary to promote wound healing. […] Thus, the unnecessary portions of hsp90α need not be included in a composition for wound healing, thereby allowing a composition to be more efficacious per weight of active wound healing agent. Moreover, instead of relying on complicated isolation and extraction methods to obtain the hsp90α protein or the middle domain plus charged portion of hsp90α protein, more inexpensive and conventional methods of synthesis may be employed to obtain the lower chain length polypeptide chains.

Substance	closure of the wounds ([1]; 100 μg in 100 μl 10% carboxymethylcellulose cream, topical, daily for 5 days, day 4, 6, 8, 11, 13, 15, vs cream control, FIGS. 2A-2F)	wound sizes ([1]; F-3 vs 40 μg PDGF-BB (Regenerex) for 5 days, day 0, 5, 7, 10, 12, FIGS. 3A-3E)	wound sizes ([1]; athymic nude mice, topical daily for 5 days, day 4, 6, 8, 11, 13, 15, vs cream alone)	activity on cell migration (HKC migration) [%]	pro-motility activity (HKC migration; in comparison to the control medium)
F-3: fragment of hsp90α consisting of 115 amino acid units, from amino acid number 236 to 350	significantly accelerated closure of the wounds	significantly reduced	significantly reduced	~100	–
WT hsp90α: the full-length (WT) hsp90α protein	–	–	–	100	remarkable pro-motility activity
EEKEDKEEEKEKEEKESEDKPEIEDVGSDEEEEKKDGDKKKKKKIKEKYIDQEE (listed as Homo sapiens) [F-5, hsp90α fragment having 54 amino acid units from amino acid number 236 to 289]	–	–	–	~100	–
